Data taken from the supplement of paper PMC10307832.

compound: CCn1c(-c2nonc2N)nc2c(C#CC(C)(C)O)ncc(OC[C@H]3CCCNC3)c21 + CCNC(=O)c1noc(-c2cc(C(C)C)c(O)cc2O)c1-c1ccc(CN2CCOCC2)cc1 [Luminespib] (partner 0.01 µM); test: relative viability (nuclei count vs DMSO), 5 days (fraction); higher = more cells survive; settings: first compound 0.01 µM
Outline: (§1)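 Lung cancer cell lines were pin-tool dosed in 1536-well plates on the day after seeding, with either a lone drug or a fixed anchor-drug dose plus five library-drug doses (not always all listed) in √10 steps. Nuclei were counted on 4× images after 5 days. Relative viability is the ratio of treated-well to vehicle-well nuclei counts, with each value a median of duplicate plates.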

| Cell Line | relative viability |
| --- | --- |
| NCI-H1793 | 0.24 |
| PC-14 | 0.173 |
| EKVX | 0.788 |
| LC-2-ad | 0.964 |
| NCI-H1944 | 0.7 |
| NCI-H1975 | 0.214 |
| RERF-LC-KJ | 1.12 |
| NCI-H358 | 0.375 |
| NCI-H650 | 0.736 |
| PC-3 [JPC-3] | 0.734 |

same assay, conditions: first compound 0.03162 µM

| Cell Line | relative viability |
| --- | --- |
| NCI-H1793 | 0.237 |
| PC-14 | 0.112 |
| EKVX | 0.887 |
| LC-2-ad | 0.967 |
| NCI-H1944 | 0.786 |
| NCI-H1975 | 0.166 |
| RERF-LC-KJ | 1.31 |
| NCI-H358 | 0.403 |
| NCI-H650 | 0.835 |
| PC-3 [JPC-3] | 0.726 |

same assay, conditions: first compound 0.1 µM

| Cell Line | relative viability |
| --- | --- |
| NCI-H1793 | 0.212 |
| PC-14 | 0.158 |
| EKVX | 0.867 |
| LC-2-ad | 1.1 |
| NCI-H1944 | 0.76 |
| NCI-H1975 | 0.199 |
| RERF-LC-KJ | 1.27 |
| NCI-H358 | 0.279 |
| NCI-H650 | 0.814 |
| PC-3 [JPC-3] | 0.709 |

same assay, conditions: first compound 0.3162 µM

| Cell Line | relative viability |
| --- | --- |
| NCI-H1793 | 0.189 |
| PC-14 | 0.107 |
| EKVX | 0.878 |
| LC-2-ad | 1.04 |
| NCI-H1944 | 0.751 |
| NCI-H1975 | 0.247 |
| RERF-LC-KJ | 1.19 |
| NCI-H358 | 0.257 |
| NCI-H650 | 0.791 |
| PC-3 [JPC-3] | 0.67 |

same assay, conditions: first compound 1 µM

| Cell Line | relative viability |
| --- | --- |
| NCI-H1793 | 0.233 |
| PC-14 | 0.148 |
| EKVX | 0.911 |
| LC-2-ad | 0.974 |
| NCI-H1944 | 0.733 |
| NCI-H1975 | 0.304 |
| RERF-LC-KJ | 1.1 |
| NCI-H358 | 0.419 |
| NCI-H650 | 0.818 |
| PC-3 [JPC-3] | 0.591 |

compound: CCn1c(-c2nonc2N)nc2c(C#CC(C)(C)O)ncc(OC[C@H]3CCCNC3)c21 + CC(=O)Nc1cccc(-n2c(=O)n(C3CC3)c(=O)c3c(Nc4ccc(I)cc4F)n(C)c(=O)c(C)c32)c1 [Trametinib] (partner 0.02 µM); test: as above; settings: first compound 0.01 µM
Outline: as §1

| Cell Line | relative viability |
| --- | --- |
| NCI-H1793 | 0.388 |
| PC-14 | 0.716 |
| EKVX | 0.394 |
| LC-2-ad | 0.9 |
| NCI-H1944 | 0.452 |
| NCI-H1975 | 0.359 |
| RERF-LC-KJ | 0.854 |
| NCI-H358 | 0.145 |
| NCI-H650 | 0.934 |
| PC-3 [JPC-3] | 0.702 |

same assay, conditions: first compound 0.03162 µM

| Cell Line | relative viability |
| --- | --- |
| NCI-H1793 | 0.393 |
| PC-14 | 0.772 |
| EKVX | 0.385 |
| LC-2-ad | 0.93 |
| NCI-H1944 | 0.449 |
| NCI-H1975 | 0.393 |
| RERF-LC-KJ | 0.818 |
| NCI-H358 | 0.133 |
| NCI-H650 | 0.977 |

same assay, conditions: first compound 0.1 µM

| Cell Line | relative viability |
| --- | --- |
| PC-14 | 0.613 |
| EKVX | 0.347 |
| LC-2-ad | 0.91 |
| NCI-H1944 | 0.393 |
| NCI-H1975 | 0.452 |
| RERF-LC-KJ | 0.842 |
| NCI-H358 | 0.132 |
| NCI-H650 | 0.938 |
| PC-3 [JPC-3] | 0.732 |

same assay, conditions: first compound 0.3162 µM

| Cell Line | relative viability |
| --- | --- |
| NCI-H1793 | 0.401 |
| PC-14 | 0.446 |
| EKVX | 0.377 |
| LC-2-ad | 0.89 |
| NCI-H1944 | 0.355 |
| NCI-H1975 | 0.281 |
| RERF-LC-KJ | 0.778 |
| NCI-H358 | 0.115 |
| NCI-H650 | 0.897 |
| PC-3 [JPC-3] | 0.648 |

same assay, conditions: first compound 1 µM

| Cell Line | relative viability |
| --- | --- |
| NCI-H1793 | 0.436 |
| PC-14 | 0.444 |
| EKVX | 0.34 |
| LC-2-ad | 0.933 |
| NCI-H1944 | 0.401 |
| NCI-H1975 | 0.21 |
| RERF-LC-KJ | 0.835 |
| NCI-H358 | 0.104 |
| NCI-H650 | 1.07 |
| PC-3 [JPC-3] | 0.687 |

compound: CCn1c(-c2nonc2N)nc2c(C#CC(C)(C)O)ncc(OC[C@H]3CCCNC3)c21 + C[C@]1(O)C[C@@H](c2nc(-c3ccc4ccc(-c5ccccc5)nc4c3)c3c(N)nccn32)C1 [Linsitinib] (partner 1 µM); test: as above; settings: first compound 0.01 µM
Outline: as §1

| Cell Line | relative viability |
| --- | --- |
| NCI-H1793 | 0.761 |
| PC-14 | 0.967 |
| EKVX | 0.997 |
| LC-2-ad | 0.878 |
| NCI-H1944 | 1.15 |
| NCI-H1975 | 0.887 |
| RERF-LC-KJ | 0.91 |
| NCI-H358 | 0.812 |
| NCI-H650 | 0.714 |
| PC-3 [JPC-3] | 0.959 |

same assay, conditions: first compound 0.03162 µM

| Cell Line | relative viability |
| --- | --- |
| NCI-H1793 | 0.835 |
| PC-14 | 0.975 |
| EKVX | 0.952 |
| LC-2-ad | 0.919 |
| NCI-H1944 | 1.17 |
| NCI-H1975 | 1.02 |
| RERF-LC-KJ | 0.871 |
| NCI-H358 | 0.877 |
| NCI-H650 | 0.79 |
| PC-3 [JPC-3] | 0.933 |

same assay, conditions: first compound 0.1 µM

| Cell Line | relative viability |
| --- | --- |
| NCI-H1793 | 0.756 |
| PC-14 | 0.963 |
| EKVX | 1.03 |
| LC-2-ad | 0.836 |
| NCI-H1944 | 1.21 |
| NCI-H1975 | 0.913 |
| RERF-LC-KJ | 0.855 |
| NCI-H358 | 0.667 |
| NCI-H650 | 0.959 |
| PC-3 [JPC-3] | 0.98 |

same assay, conditions: first compound 0.3162 µM

| Cell Line | relative viability |
| --- | --- |
| NCI-H1793 | 0.851 |
| PC-14 | 0.849 |
| EKVX | 0.954 |
| LC-2-ad | 0.849 |
| NCI-H1944 | 1.21 |
| NCI-H1975 | 0.791 |
| RERF-LC-KJ | 0.856 |
| NCI-H358 | 0.631 |
| NCI-H650 | 0.766 |
| PC-3 [JPC-3] | 0.927 |

same assay, conditions: first compound 1 µM

| Cell Line | relative viability |
| --- | --- |
| NCI-H1793 | 0.806 |
| PC-14 | 0.919 |
| EKVX | 0.976 |
| LC-2-ad | 0.875 |
| NCI-H1944 | 1.21 |
| NCI-H1975 | 0.86 |
| RERF-LC-KJ | 0.903 |
| NCI-H358 | 0.562 |
| NCI-H650 | 0.789 |
| PC-3 [JPC-3] | 0.932 |

compound: CCOC1=CC=CC=C1N=NC2=C(NN(C2=O)C3=NC(=CS3)C4=CC=CC=C4)C [BAM7] + Cc1nc(NC(=O)N2CCC[C@H]2C(N)=O)sc1-c1ccnc(C(C)(C)C(F)(F)F)c1 [Alpelisib] (partner 2 µM); test: as above; settings: first compound 0.5 µM
Outline: as §1

| Cell Line | relative viability |
| --- | --- |
| NCI-H1793 | 0.752 |
| PC-14 | 0.983 |
| EKVX | 0.891 |
| LC-2-ad | 0.998 |
| NCI-H1944 | 0.875 |
| NCI-H1975 | 0.539 |
| RERF-LC-KJ | 0.814 |
| NCI-H358 | 0.953 |
| NCI-H650 | 1.03 |
| PC-3 [JPC-3] | 1.02 |

same assay, conditions: first compound 5 µM

| Cell Line | relative viability |
| --- | --- |
| NCI-H1793 | 0.892 |
| PC-14 | 0.841 |
| EKVX | 0.794 |
| LC-2-ad | 0.893 |
| NCI-H1944 | 0.902 |
| NCI-H1975 | 0.508 |
| RERF-LC-KJ | 0.823 |
| NCI-H358 | 0.837 |
| NCI-H650 | 1.33 |
| PC-3 [JPC-3] | 0.99 |

same assay, conditions: first compound 15.81 µM

| Cell Line | relative viability |
| --- | --- |
| NCI-H1793 | 0.541 |
| PC-14 | 0.915 |
| EKVX | 0.513 |
| LC-2-ad | 0.746 |
| NCI-H1944 | 0.661 |
| RERF-LC-KJ | 0.716 |
| NCI-H358 | 0.859 |
| NCI-H650 | 1.04 |
| PC-3 [JPC-3] | 0.876 |

same assay, conditions: first compound 50 µM

| Cell Line | relative viability |
| --- | --- |
| NCI-H1793 | 0.675 |
| PC-14 | 0.906 |
| EKVX | 0.597 |
| LC-2-ad | 0.855 |
| NCI-H1944 | 0.81 |
| NCI-H1975 | 0.548 |
| RERF-LC-KJ | 0.766 |
| NCI-H358 | 0.85 |
| NCI-H650 | 1.08 |
| PC-3 [JPC-3] | 0.907 |
